Source: PMC4534193, “Binding of the Lactococcal Drug Dependent Transcriptional Regulator LmrR to Its Ligands and Responsive Promoter Regions” (PLoS ONE, 2015)

Biological target: T1, LmrR (Lactococcus cremoris, UniProt A2RI36)
T1 construct: gene llmg_0323; LmrR homodimer; untagged protein for the crystal (residues 1–5, 70–75 and 109–116 not modelled)
T1 sequence (A2RI36 1-116): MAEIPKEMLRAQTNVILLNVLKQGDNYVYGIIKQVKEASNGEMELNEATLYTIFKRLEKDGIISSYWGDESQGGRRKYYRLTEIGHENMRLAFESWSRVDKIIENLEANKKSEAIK
Experiment: co-crystal structure ([…] Å) and riboflavin fluorescence quenching titration
Format: binding

- Kd: 260 ± 80 nM
SMILES: Cc1cc2nc3c(=O)[nH]c(=O)nc-3n(C[C@H](O)[C@H](O)[C@H](O)CO)c2cc1C [RBF, riboflavin]
